Columns and labels:
rat hippocampal cultures = test: Neurite outgrowth assay (MAP2-FITC immunofluorescence), hippocampal cultures; type: cell-based; conditions: for overall neurite outgrowth response, hippocampal versus cortical cultures: comparison of hippocampal and cortical cultures; for dose-response profile: 10 fM-10 nM
Excerpt: (§1) Dissociated hippocampal and cortical cell cultures were established from embryonic day 18 rat fetuses as previously described (Mattson et al., 1994). Briefly, fetuses were removed via cesarean section from pregnant moms (Sprague-Dawley) anesthetized with halothane according to the AVMA Panel on Euthanasia. Pups were decapitated and the brains were removed and placed in HEPES-buffered Hank's Balanced Salt solution (HBSS; Gibco). The hippocampi and cortices were dissected out and pooled according to tissue-type. Tissue was trypsinized for 15 min (1 mg/ml trypsin-HBSS; Worthington), rinsed with fresh HBSS, incubated in trypsin inhibitor (1 mg/ml; Sigma) for 5 min, rinsed again with fresh HBSS and then triturated in 1 ml fresh HBSS with a fire-polished glass pipette. Dissociated cells were seeded at 30,000 cells/well onto poly-D-lysine coated 96-well plates (Collaborative BioScience). Each well contained 100 μl of Eagle's Minimal Essential Media (MEM; Gibco) supplemented with 26 mM NaHCO3 (Sigma), 56 mM glucose (Sigma), 15 mM KCl (Sigma), 1 mM sodium pyruvate (Sigma), 1.1 mM L-glutamine (Sigma), 10% (v/v) heat-inactivated fetal bovine serum (Hyclone), and 0.001% gentamicin sulfate (Sigma) (pH 7.4). Cells were allowed to attach for 24 h in a humidified 37° C. 5% CO2 incubator before experimental treatment. The culture media was aspirated and exchanged with fresh media every three days.
(§2) Twenty-four hours after plating, cultures were treated with vehicle (PBS+0.1% BSA), 100 ng of various growth factors (brain derived neurotrophic factor (BDNF; Promega), glial-derived neurotrophic factor (GDNF; Promega), nerve growth factor (NGF; Boehringer Mannheim), basic fibroblast growth factor (bFGF; Boehringer Mannheim), insulin-like growth factor-1 (IGF-1; Boehringer Mannheim), neurotrophin-3 (NT3; Calbiochem), neurotrophin-4 (NT4; Calbiochem), ciliary neurotrophic factor (CNTF; Calbiochem), epidermal growth factor (EGF; Calbiochem), vascular endothelial growth factor (VEGF; Calbiochem)), or rhEPO (prepared same as above; 10 fM-10 nM)). Each treatment condition was run in quadruplicate or octuplicate. On the third day in culture, the media was aspirated off and replaced with fresh media and test compound. At one week in culture, the cells were fixed with 10% phosphate-buffered formalin for 15 min, then rinsed with DPBS (Sigma) and placed in blocking serum for 30 min (horse serum; 1:50 dilution in DPBS; Vector Labs). Cultures were rinsed again with DPBS and then incubated in primary antibody for 2 hr (microtubule-associated protein-2 (MAP-2) is a selective marker for dendritic processes; anti-mouse monoclonal (Chemicon); 1:1000 dilution of MAP-2 in antibody diluent (Zymed)). Negative control wells were incubated in antibody diluent alone. Background signal was determined by blank wells (cell-free) incubated with or without antibody. Cultures were rinsed again with DPBS and then placed in fluorescein for 1 hr (FITC; anti-mouse IgG; rat adsorbed; 1:50 dilution in DPBS; Vector Labs). Cultures were rinsed a final time with DPBS and then the plates were read on a Cytofluor 4000 fluorescence plate reader. Neurite outgrowth was expressed as percent change from control (vehicle; mean fluorescence±SD).
(§3) Dissociated hippocampal and cortical cell cultures were established from embryonic day 18 rat fetuses as previously described (Mattson et al., 1994). Briefly, fetuses were removed via cesarean section from pregnant moms (Sprague-Dawley) anesthetized with halothane according to the AVMA Panel on Euthanasia. Pups were decapitated and the brains were removed and placed in HEPES-buffered Hank's Balanced Salt solution (HBSS; Gibco). The hippocampi and cortices were dissected out and pooled according to tissue-type. […]

[1] = system: rat cerebral cortical cultures; test: Neurite outgrowth assay (MAP2-FITC immunofluorescence), cortical cultures; type: cell-based; conditions: for dose-response profile: 10 fM-10 nM
Excerpt: as §1, §2, §3

| Sequence | overall neurite outgrowth response, hippocampal versus cortical cultures (rat hippocampal cultures) | neurite outgrowth (in words) (rat hippocampal cultures; hippocampal cultures) | dose-response profile (rat hippocampal cultures; hippocampal cultures) | neurite outgrowth (in words) [1] | dose-response profile [1] | neurite outgrowth at peak activity, increase over vehicle (rat hippocampal cultures; hippocampal cultures, EMP 10 fM-10 nM, one week in culture) |
| --- | --- | --- | --- | --- | --- | --- |
| GGTASCHFGPLTWVCKPQGG [EMP-6] | robust neurite outgrowth activity in both hippocampal and cortical cultures | promotes neurite outgrowth | typical bell-shaped dose-response profiles | promotes neurite outgrowth | typical bell-shaped dose-response profiles |  |
| GGTYSCFGPLTWVCKPQGG [EMP-27] | less impressive overall | promotes neurite outgrowth | flat response profile | promotes neurite outgrowth | flat response overall |  |
| GGTYSCHFAPLTWVCKPQGG [EMP-9] | less impressive overall | promotes neurite outgrowth | flat response profile | promotes neurite outgrowth | flat response overall |  |
| GGTYSCHFGPLTWVCKPQGG [EMP-1] | selective effects in hippocampal cultures over cortical cultures | promotes neurite outgrowth | typical bell-shaped dose-response profiles | promotes neurite outgrowth | flat response overall |  |
| YCHFGPLTWVC [EMP-23] | effects were greater in cortical cultures than hippocampal cells | promotes neurite outgrowth | modest response | promotes neurite outgrowth | typical bell-shaped dose-response profiles | 43–46% |
